Here are results for two compounds from US20260263401A1, “Topical composition and uses thereof” (UNIVERSIDADE DE COIMBRA, priority 2022, published 2026).

Test [1] concerns Poly-L-Lysine Hydrobromide (PLL). The experiment in a line: Lysine depletion protocol (in chemico reactivity towards lysine). As to conditions: 20 mM molecule incubated 1 h with DNFB 5 mM; FIG. 1B. As for the experimental part: In an embodiment, a Lysine depletion Protocol—“in house development protocol” was applied, comprising: Dissolve 0.01 g of Poly-L-Lysine Hydrobromide (PLL) (Sigma, P1399) in 100 mL of purified water (use within 2 months). Filter the solution with a syringe filter to remove aggregates and store ate 4° C. for further use. For plate coating add 50 μL of PLL to each well of the 96 black bottom glass microplate (Corning ref 45806) and incubate for 2 hours at 37° C. or 24 h at room temperature.
In an embodiment, after the coating procedure, the contents of the plate were discarded into a sink and the plate is washed 3 times with 200 μL of PBS per well. Blot any residual PBS by firmly tapping the plate upside-down on absorbent paper. 20 mM of each potential ACD inhibitory molecule/mixture is added and incubated with 70 μl of the strong skin sensitizer 1-fluoro-2,4-dinitrobenzene (DNFB) (5 mM in DMSO) for 1h; the mixture was transferred to the plate and incubated for 24 h at 37° C. The contents of the plate were discarded and the wells were washed 3 times with PBS as previously reported. 70 μL of 10 μM Fluorescein-5-Ex-Succinimidyl Ester (FSE) were added and incubated for 1 h in the dark at 37° C. The contents of the plate were discarded; the wells were washed 3 times with PBS as previously stated. The fluorescence was read in a microplate reader (Exc 485±20 nm and Em 530±30 nm). Synergy™ HT plate reader (BioTek Instruments, Inc., Winooski, VT, USA): Bottom read with a sensibility of 50. […]
In an embodiment, Reference control A is made with the solvent DMSO, with incubation with FSE and is used to calculate the maximum fluorescence or absorbance in the presence of LYS. […]
In an embodiment, Test chemicals were pre-weighted into 1.5 mL test tubes and dissolved in 1 mL of DMSO to prepare a 100 mM solution immediately before use. The weight of the test chemical to be added to the vial was determined based on the molecular weight and purity. […]
In an embodiment, for the data Analysis the percentage of peptide depletion is determined by using the following formula: […]

The nature of test [2]: Cysteine depletion protocol (glutathione in solution depletion). The settings on record: FIG. 1A. As for the experimental part: In an embodiment, Cysteine depletion Protocol-Glutathione in solution depletion protocol—“in house development protocol” was applied: • In a test tube, mix 10 μL of the 100 mM test chemical solution with 190 μL of GSH solution (20 μL of GSH 2 mM and 170 μL of PB) and Incubated at RT, protected from light, for 1 h in a tube roller (40 rpm) • […]; [test chemical]f=5 mM; [GSH]f=0.2 mM; • 20 μL of Ellman's reagent 10 mM, a thiol sensitive colorimetric reagent was added. Mix gently by tapping manually in the test tube and incubate for 10 min at RT, in a test tube rotator protected from light; • The absorbance was read in a microplate reader at 405 nm. • Note: For each assay, a fresh Glutathione stock of 50 mM (0.00768 g in 500 μL of PBS) and the second stock of 2 mM in PBS (2 μL of the […] solution+48 μl of PBS) were freshly prepared.
In an embodiment, Control and Test Chemical Preparation was applied: • DNFB is used as the positive control for the assay in every assay run. For the negative control LA is used and for the reference control three types of reference controls are included in each study: • Reference control A is made with the solvent DMSO, with incubation with Ellman's reagent and is used to calculate the maximum fluorescence or absorbance in the presence of CYS containing peptides. […]
Test Chemicals: In an embodiment, test chemicals were pre-weighted into 1.5 mL test tubes and dissolved in 1 mL of DMSO to prepare a 100 mM solution immediately before use. The weight of the test chemical to be added to the vial is determined based on the molecular weight and purity. […]
In an embodiment, for the data analysis, the percent depletion of peptide is determined by using the following formula: […]

The test system of test [3] is NRF2 dependent genes in HaCaT. The test is described as follows: Expression of NRF2 dependent genes in keratinocytes (real time PCR). As to conditions: 6 h. It is filed as cell-based, human. Background: Real-time PCR tracks product formation cycle by cycle.
Protocol: HaCaT is cultured with Dulbecco's Modified Eagle's Medium (DMEM) (Sigma-Aldrich, St. Louis, MO, USA), supplemented with 10% (v/v) heat-inactivated fetal bovine serum (FBS), 1% (v/v) antibiotic solution (100 U/mL penicillin, 100 μg/mL streptomycin) (Gibco, Carlsbad, CA, USA), 3.7 g/L sodium bicarbonate and 1 mM sodium pyruvate (Sigma-Aldrich, St. Louis, MO, USA).
In an embodiment, HaCaT cells are seeded in 6-well plates at a density of 6×10^5 cells/well and allowed to adhere for 24 h. After that, cells are incubated for 24 h with exposure medium (control) or treated with 10 mM of NAC, 10 mM of LYS, 8 μM of DNFB, 100 μM of MI, or 10 mM+DNFB, 10 mM LYS+DNFB and 10 mM+MI, 10 mM LYS+MI for 6 h or 24 h.
In an embodiment, total RNA (ribonucleic acid) is extracted from HaCaT treated cells, as previously described by our group [37], with NZYol reagent, according to the manufacturer's instructions and its concentration is determined by OD260 measurement using a NanoDrop spectrophotometer (Thermo Scientific, Wilmington, DE, USA). Samples are stored in RNA Storage Solution at −80° C. until use. Total RNA (1 g) is reverse-transcribed using the iScript Select cDNA Synthesis Kit, and real-time reverse transcriptase-polymerase chain reaction (RT-PCR) reactions are performed, in duplicate for each sample, on a Bio-Rad MyCycler iQ5 (Hercules, CA, USA), as previously described by our group [38].
In an embodiment, after amplification, a threshold is set for each gene and Ct values are calculated for all samples. Gene expression changes are analyzed using Bio-Rad CFX Maestro 1.1 system software (Hercules, CA, USA). The results are normalized using Hprt-1 as the reference gene. Primer sequences are designed using Beacon Designer software version 7.7 (Premier Biosoft International, Palo Alto, CA, USA) and thoroughly tested.
Setting [4] is: incubated before DNFB, vs DNFB alone.
Where [5] appears, read: incubated before MI, vs MI alone.

SMILES strings stand for the structures.

`NCCCC[C@H](N)C(=O)O` [LYS, lysine]: in test [1], the “reactivity of the strong allergen DNFB towards lysine (Lysine depletion)” value was “significantly inhibit”. Further, in test [2], the “reactivity of the strong allergen DNFB towards cysteine (Glutathione depletion)” value is on record as “significantly inhibit”. In test [3] (setting [4]), the HMOX1 expression entry is recorded as “significantly decrease” and the NQO1 expression entry is “significantly decrease”.
Take `CC(=O)N[C@@H](CS)C(=O)O` [NAC, n-acetyl cysteine]: the “reactivity of the strong allergen DNFB towards lysine (Lysine depletion)” value in test [1] is “significantly inhibit”. In addition, the “reactivity of the strong allergen DNFB towards cysteine (Glutathione depletion)” value in test [2] is reported as “significantly inhibit”. For the same compound, the HMOX1 expression result in test [3] (setting [4]) and in test [3] (setting [5]) was “significantly decrease” throughout. Besides, the TRX1 expression entry in test [3] (setting [5]) is on record as “significantly decrease”.
